Measured values reported in PubChem BioAssay AID735 (The Scripps Research Institute Molecular Screening Center, 2007).
Calls of active or inactive are those of the source. How the calls were made is not given here.

Molecular target: Collagenase 3 (Homo sapiens) (UniProt P45452)
Experiment: human MMP13 inhibitors, potency, dose response, biochemical (AID 735)
Conditions: recombinant MMP13 enzymatic activity assay

| SMILES | IC50 |
| --- | --- |
| COc1cc(-n2nc(C)c3c2OC(N)=C(C#N)C3c2ccccc2)c(Cl)c(Br)c1O (configuration not stated) | > 39.8 µM (inactive) |
| CCOC(=O)/C(C#N)=C1/C=Nc2ccccc2N1 | inactive |
